Results from patent US20080312128A1, “Cellular Biomarker Antioxidant Assay and Uses Thereof” (priority 2005, published 2008).
“Also recorded” adds a separate entry of the source.

What was measured:
Format in all cases: cell-based, human
cFos = test: Vitamin C pretreatment, OS-induced cFos transcription in RPE cells
Procedure: (§1) RNA was isolated from the cells using a no-rinse method after 1 hour or 4 hours of OS, and compared to no-OS controls. Gene-specific expression was quantified by real-time PCR on an ABI 7700 System. […] Experiments were carried out as described above. Briefly, ARPE19 cells were grown to confluence. […] Following RNA extraction and reverse transcription, real-time PCR was used to assess levels of gene transcripts, as described above. […] The data are normalized to 0 at time 0 in order to minimize the mild variability in starting values for the Ct seen within each experiment. […] OS strongly induces gene expression in our gene panel, and the number of transcripts (amount of induction) is proportional to the level of OS. Therefore, protective effects of an antioxidant such as Vitamin C would be expected to reduce the level of transcripts. A protective effect is reflected in an inverse dose dependent (DD) relationship between the level of antioxidant agent (Vitamin C) and the level of transcripts. Higher pretreatment levels with the antioxidant should lead to a lower level of transcripts after OS (a lower change in Ct). An extremely low dose of Vitamin C (0.0001 mM) was chosen in these studies as a homeopathic dose that is not expected to be protective and should be similar to the positive control. This control was added to ensure that all cultures were treated in the same way, as we have determined that even minimal manipulations can have significant effects upon expression of these genes.

FosB = test: Vitamin C pretreatment, OS-induced FosB transcription in RPE cells; settings: for Inhibition of OS-induced FosB transcription: 0.0001-0.2 mM pretreatment
Procedure: as §1

ATF3 = test: Vitamin C pretreatment, OS-induced ATF3 transcription in RPE cells
Procedure: as §1, with “An extremely low dose of Vitamin C (0.0001 mM) was chosen in these studies as a homeopathic dose that is not expected to be protective and should be similar to the positive control.” left out

CRYBA = test: Vitamin C pretreatment, OS-induced CRYBA transcription in RPE cells; settings: for Inhibition of OS-induced CRYBA transcription: 0.0001-0.2 mM pretreatment
Procedure: as §1

HO-1 = test: Vitamin C pretreatment, OS-induced HO-1 transcription in RPE cells; settings: 500 μM H2O2, 1 hour and 4 hours after OS
Procedure: RNA was isolated from the cells using a no-rinse method after 1 hour or 4 hours of OS, and compared to no-OS controls. Gene-specific expression was quantified by real-time PCR on an ABI 7700 System. […] Experiments were carried out as described above. Briefly, ARPE19 cells were grown to confluence. […] Following RNA extraction and reverse transcription, real-time PCR was used to assess levels of gene transcripts, as described above. […] The data are normalized to 0 at time 0 in order to minimize the mild variability in starting values for the Ct seen within each experiment.

## O=C1O[C@H]([C@@H](O)CO)C(O)=C1O [Vitamin C, L-ascorbic acid]
cFos; 0.0001-0.2 mM pretreatment, 500 μM H2O2, 1 hour
  Inhibition of OS-induced cFos transcription: modest threshold response
cFos; 0.2 mM dose, 500 μM H2O2, 1 hour
  Inhibition of OS-induced cFos transcription: strong dose-dependence
cFos; 500 μM H2O2, 4 hours
  Inhibition of OS-induced cFos transcription: threshold response for the lower levels of Vitamin C is still seen
cFos; summary, 500 μM H2O2
  Activation of c-Fos transcription by OS following pretreatment: dose-dependent reduction
FosB; 500 μM H2O2, 1 hour
  Inhibition of OS-induced FosB transcription: modest dose response
FosB; 500 μM H2O2, 4 hours
  Inhibition of OS-induced FosB transcription: the effect is quite clear
FosB; summary, 500 μM H2O2
  Activation of FosB transcription by OS following pretreatment: dose-dependent reduction
ATF3; 0.0001-0.2 mM pretreatment, 500 μM H2O2
  Response of OS-induced ATF3 transcription to pretreatment: we do not see a response; also recorded: does not appear to be reduced; also recorded: does not inhibit
ATF3; 500 μM H2O2, 4 hours
  Response of OS-induced ATF3 transcription to pretreatment: slight threshold response may be present
CRYBA; 500 μM H2O2, 1 hour
  Inhibition of OS-induced CRYBA transcription: DD response is evident
CRYBA; 500 μM H2O2, 4 hours
  Inhibition of OS-induced CRYBA transcription: DD response is more evident
CRYBA; summary, 500 μM H2O2
  Activation of CRYBA transcription by OS following pretreatment: dose-dependent reduction
HO-1
  Response of HO-1 transcription after OS to pretreatment: does not demonstrate any response; also recorded: does not appear to be reduced
